Measured values published in patent publication EP0617046A1, “Nucleoside derivatives and antiherpes composition” (NIPPON CHEMIPHAR CO., LTD., priority 1993, dated 1994).
In brackets after ≈: the same amount, converted by molar mass.

Columns and labels:
[1] = test system: herpes simplex virus (HSV) type 2; conditions: cited from earlier work
[2] = test system: herpes simplex virus (HSV) type 1; conditions: cited from earlier work
cytomegalovirus (CMV) = conditions: CMV having no thymidine kinase (TK); Clinic and Study, vol. 70, No.8 (1993); cited from earlier work
TK⁺VZV OKA strain = experiment: Assay for antiviral activity (plaque formation in HEL cells); format: cell-based, Varicella-zoster virus (VZV); conditions: Human alphaherpesvirus 3, HEL, 120 h, read-out: Antiviral Activity IC₅₀ (µg/mL)
Method: (§1) The nucleoside derivative of the invention is further examined in antivairal activity to varicella-zoster virus (VZV) and cytotoxicity by the following tests.
(§2) Human embryonic lung fibroblast (HEL cell, ATCC CCL-137)
(§3) Culture: The cell is cultured in a minimum essential medium (MEM, Gibco) supplemented with 10% inactivated bovine fetal serum, 1% L-glutamine, and 0.3% sodium hydrogen carbonate.
(§4) • (a) Thymidine kinase-positive (TK⁺) strain OKA & YS • (b) Thymidine kinase-deficient (TK⁻) strain YS/R & 07/1
(§5) Cells cultured on a 96-well microtiter plate are inoculated with the virus at an input of 20 plaque formation units (PFU). The cultured cells are incubated at 37°C for 2 hours. Subsequently, remaining virus is removed, and the incubated cells are again cultured in a MEM medium to which are added the test compound, 10% inactivated bovine fetal serum, 1% L-glutamine, and 0.3% sodium hydrogen carbonate in duplicate. After five days culture, the microtiter plate is fixed by ethanol, stained by Giemsa staining method, and microscopically observed for measurement of number of plaques formed. The results are indicated by IC₅₀ (i.e., concentration at which the plaque formation by virus is inhibited by 50%.

TK⁺VZV YS strain = experiment: as above; format: cell-based, Varicella-zoster virus (VZV); conditions: Human alphaherpesvirus 3, HEL, 120 h, read-out: Antiviral Activity IC₅₀ (µg/mL)
Method: as §1, §2, §3, §4, §5

TK⁻VZV YS/R strain = experiment: as above; format: cell-based, Varicella-zoster virus (VZV); conditions: Human alphaherpesvirus 3, HEL, 120 h, read-out: Antiviral Activity IC₅₀ (µg/mL)
Method: as §1, §2, §3, §4, §5

TK⁻VZV 07/1 strain = experiment: as above; format: cell-based, Varicella-zoster virus (VZV); conditions: Human alphaherpesvirus 3, HEL, 120 h, read-out: Antiviral Activity IC₅₀ (µg/mL)
Method: as §1, §2, §3, §4, §5

[3] = Assay for cytotoxicity (cell growth, Coulter Counter); format: cell-based; conditions: human; HEL cells; 3 days incubation; cell growth inhibited by 50%; read-out: Cytotoxicity CC₅₀
Method: as §2, §3
HEL cellls of 3 x 10³ cells/well are seeded into a 96 well microtiter plate and allowed to proliferate in a MEM medium containing 10% inactivated bovine fetal serum at 37°C for 24 hours. Subsequently, the medium is changed into a MEM medium containing different concentrations of the tested compound, and then the incubation is continued for another 3 days. When monolayer cells are grown to 70%, number of cells is countered by Coulter Counter. The cytotoxicity is indicated by CC₅₀ (i.e., concentration at which the cell growth is inhibited by 50%.).

Nc1nc2c(ncn2COCCO)c(=O)[nH]1 [Acyclovir]
concentration showing inhibitory effect [1]: less than 0.05 µL/mL
concentration showing inhibitory effect [2]: less than 0.05 µL/mL
effectiveness to cytomegalovirus (CMV) (cytomegalovirus (CMV)): not effective

Nc1ncnc2c1ncn2[C@@H]1O[C@H](COC2(c3ccccc3)c3ccccc3Oc3ccccc32)[C@@H](OC2(c3ccccc3)c3ccccc3Oc3ccccc32)[C@H]1OC1CCCCO1 (some centres unmarked) [Example 2, 2'-O-Tetrahydropyranyl-3',5'-O-di(9-phenylxanthenyl)adenosine]
IC50 (TK⁺VZV OKA strain): 2 µg/mL (≈ 2.31 µM)
IC50 (TK⁺VZV YS strain): 1 µg/mL (≈ 1.16 µM)
IC50 (TK⁻VZV YS/R strain): 2 µg/mL (≈ 2.31 µM)
IC50 (TK⁻VZV 07/1 strain): 0.8 µg/mL (≈ 0.926 µM)
CC50 at 72 h [3]: > 50 µg/mL
